Results on 6 compounds are retold here after patent US20250152633A1, “CELLS HAVING IMPROVED PROLIFERATIVE CAPACITY AND REDUCED CELLULAR SENESCENCE” (BOARD OF REGENTS, THE UNIVERSITY OF TEXAS SYSTEM, priority 2023, published 2025).

For one test, the system named is MSCs from aged donors. In words: BrdU proliferation assay (DNA synthesis) after mechanical and chemical treatment. The format is cell-based, human. The following applies: for DNA synthesis (BrdU assay): co-treatment with brachial loading, 5 μM KU55933 or 5 mM NAC, aged donor MSCs, vs. static control. The procedure: Cell lines and cell culture. Human mesenchymal stem cells (Promocell) were cultured in low glucose DMEM medium supplemented with 15% fetal bovine serum, L-glutamine and penicillin/streptomycin. Following trypsinization, cells were seeded on the membranes at 20,000 cells per cm^2 before mechanical loading. The cells were used between passages 4-6, unless otherwise specified. The MSCs were derived from a donor 1, unless otherwise specified. A subset of the studies were performed using MSCs from donor 2, or donor 3, or donor 4. A subset of the studies used MSCs derived from a young, healthy donor. Human umbilical vein endothelial cells (HUVECs; PromoCell GmbH) were cultured in MCDB 131 medium supplemented with 7.5% fetal bovine serum, L-glutamine and penicillin/streptomycin and EGM-2 SingleQuot Kit (Thermo Fisher Scientific, Inc.). All cells were cultured in an incubator at 37° C. under a 5% CO2 atmosphere.
Application of biomechanical treatment. Mechanical strain was applied to cell culture using a high throughput system described previously (Lee et al., 2013; Lee & Baker, 2015; Lee et al., 2020). Briefly, cells are cultured on custom made plates that are mounted on a system that applies strain. The cell culture plates were comprised of silicone membranes (0.005″ thickness; Specialty Manufacturing, Inc.) that are sandwiched between two plates, with silicone rubber gaskets at the interfaces to prevent leaking. These cell culture membranes are UV sterilized and coated with 50 μg/mL fibronectin overnight at 37° C. to allow cell adhesion. After cell attachment, the plates are mounted on to the top plate of the system using screws. To apply mechanical strain, a platen with 36 Teflon pistons is moved into the cell culture membrane. The motion is driven by a hygienically sealed, voice coil-type linear motor (Copley Controls). The platen is stabilized using six motion rails mounted with linear motion bearings. […]
BrdU Proliferation Assay. […] Absorbance was read at 450 nm using a FlexStation-3 plate reader (Molecular Devices). […]
(In general: Uptake of a labelled nucleoside into DNA is a usual measure of proliferation.)

In test [1] the test system is MSCs from an aged donor one. Kind of test: Western blotting of protein expression after treatment of MSCs. As to conditions: for SIRT6 expression (Western blotting): brachial+NAC (5 mM) or KU55933 (5 μM) treatment; for DNA damage repair protein KU80 expression (Western blotting): brachial+NAC (5 mM) or brachial+KU55933 (5 μM), compared to control groups. The format is cell-based, human. The procedure:
Application of biomechanical treatment. Mechanical strain was applied to cell culture using a high throughput system described previously (Lee et al., 2013; Lee & Baker, 2015; Lee et al., 2020). Briefly, cells are cultured on custom made plates that are mounted on a system that applies strain. The cell culture plates were comprised of silicone membranes (0.005″ thickness; Specialty Manufacturing, Inc.) that are sandwiched between two plates, with silicone rubber gaskets at the interfaces to prevent leaking. These cell culture membranes are UV sterilized and coated with 50 μg/mL fibronectin overnight at 37° C. to allow cell adhesion. After cell attachment, the plates are mounted on to the top plate of the system using screws. To apply mechanical strain, a platen with 36 Teflon pistons is moved into the cell culture membrane. The motion is driven by a hygienically sealed, voice coil-type linear motor (Copley Controls). The platen is stabilized using six motion rails mounted with linear motion bearings. The hygienically sealed motor housing has chilled water running through in order to prevent overheating during operation. Unless otherwise specified, loading was applied for 4 hours per day for 7 days with or without 1 μm the EGFR/ErbB-2/ErbB-4 Inhibitor (CAS 881001-19-0; Table 3).
Cell lysis and immunoblotting. Following the treatments, the cells were lysed in 20 mM Tris with 150 mM NaCl, 1% Triton X-100, 0.1% SDS, 2 mM sodium orthovandate, 2 mM PMSF, 50 mM NaF and a protease inhibitor cocktail (Roche, Inc.). The proteins were separated on a NuPAGE 10% bis-tris midi gel (Novex) and transferred to nitrocellulose membrane using iBlot transfer stack (Novex). The membranes were blocked for one hour in 5% non-fat milk in PBS with 0.01% tween-20 (PBST). After washing twice in PBST, cells were incubated with primary antibodies (Table 1) overnight in 1% non-fat milk at 4° C. The membranes were washed with PBST and incubated at room temperature for two hours with secondary antibody. The membrane was treated with chemiluminescent substrate (SuperSignal West Femto; Thermo Fisher Scientific, Inc.) then imaged using a digital imaging system (Cell Biosciences, Inc.).
(§1) Conditioning of hMSCs using biochemical factors. For mechanistic experiments involving chemical factors and biological inhibitors, cells were incubated with the chemical treatments as shown in Table 3. The cells were treated with mechanical loading for 4 hours/day under brachial waveform at 0.1 Hz and 7.5% maximum strain or cultured under static conditions. The culture media containing the treatments were replaced on day 3 and day 5 for all 7-day treatments.
In general terms: Immunoblotting shows a protein as a band on a membrane.

The test system of test [2] is MSCs from three young, healthy donors. Kind of test: RNA-seq analysis of senescence-related gene sets. The format is cell-based, human. As to conditions: brachial loading and E/E inhibitor; young donor MSCs; age-, oncogenic-, stress-, developmental- and inflammation-related senescence gene sets. As for the experimental part: To investigate the treatments' effects on gene expression patterns that are correlated with senescence in MSCs, MSCs were obtained from three young, healthy donors, and conditioned with brachial loading and E/E inhibitor. Following the treatments, RNA-seq analysis was performed on the cells, and the expression of several key gene sets related to various mechanisms of senescence in MSCs was evaluated. These gene sets were identified through a thorough investigation of the literature as key mediators of MSC senescence, and the expression pattern of each gene as it pertains to MSC senescence was documented (Zhou et al., 2020; Brandl et al., 2011; Turinetto et al., 2016; Ozkul & Galderisi, 2016; Fridman & Tainsky, 2008; Ki et al., 2014; Cakouros & Gronthos, 2019; Peffers et al., 2016). […] Next, a gene set enrichment analysis (GSEA) was performed on the RNA-seq data. […] In all three senescence-related gene sets, a reduction in senescence related genes with brachial mechanical loading was observed (FIG. 1).
RNA Sequencing and Analysis. […] For sequencing, single reads of 50 base pairs were performed after poly-A mRNA capture using the Poly(A) Tailing Kit (Ambion) and Ultra II Directional RNA Library Prep Kit (NEB) to isolate mRNA and perform dUTP directional preparation of the mRNA library. […]

The subject of test [3] is MSCs from young donors. The following applies: 1 μM inhibitor as cotreatment with brachial loading; cited from earlier work.
Test [4] relates to MSCs from young donors. The following applies: 1 μM inhibitor as cotreatment with brachial loading, tube formation assay, cited from earlier work.
A further test concerns MSCs from an aged donor. Kind of test: p-γ-H2AX DNA double-strand break repair foci immunostaining. The following applies: for p-γ-H2AX foci, treatment of static control cells vs. static treatment alone: 4 hours static, 3 μM GsMTx4, 2 μM Dooku 1. The class given is cell-based, human. The procedure:
Immunocytochemical staining on silicone membranes. Following the treatments, the cells were fixed in 4% paraformaldehyde in PBS for 10 minutes followed by washing and permeabilization with 0.1% Triton X-100 PBS for 5 minutes. Next, samples were blocked with PBS containing 5% FBS and 1% BSA for 40 minutes. After washing, cells were incubated with primary antibodies (see Table 2 for specific antibodies and concentrations) in PBS with 1% BSA overnight at 4° C. The samples were then washed twice in PBS with 1% BSA and incubated with secondary antibodies in PBS with 1% BSA for 2 hours in a light protected environment. Cells treated with extensive washes with PBS with 1% BSA prior to mounting in anti-fade media (Vector Laboratories, Inc.). The samples were then imaged using confocal microscopy with a LSM 710 laser scanning confocal microscope (Carl Zeiss, Inc.).
p-γ-H2AX Foci Analysis. Following confocal imaging, images were analyzed with FIJI software to count p-γ-H2AX histone foci. Three-dimensional image stacks were maximum intensity projected to generate two-dimensional images with 12-bit range of 0-4095. Background signal outside of nuclei boundaries was measured and subtracted from the image. Individual cell nuclei regions of interest were selected, and an intensity threshold of 300 bits was applied. The Analyze Particle plugin was applied to count the p-γ-H2AX foci in each nucleus, with a minimum particle size of 0.5 μm applied. At least 100 individual cell nuclei were analyzed for each treatment group to calculate the mean foci count per cell, mean foci count per nuclear area, and standard errors.
as §1

Another test deals with aged MSCs. Kind of test: β-Galactosidase staining of senescent cell phenotypes. The class given is cell-based, human. The following applies: 5 mM NAC or 5 μM KU55933, with or without brachial loading; vs. static control. As for the experimental part:
Conditioning of hMSCs using biochemical factors. For mechanistic experiments involving chemical factors and biological inhibitors, cells were incubated with the chemical treatments as shown in Table 3. The cells were treated with mechanical loading for 4 hours/day under brachial waveform at 0.1 Hz and 7.5% maximum strain or cultured under static conditions. The culture media containing the treatments were replaced on day 3 and day 5 for all 7-day treatments. β-Galactosidase Analysis. Following the treatments, cell culture media was removed, and cells were washed once with PBS. Cells were fixed and stained for β-Galactosidase following the protocol of the Senescence β-Galactosidase Staining Kit (Cell Signaling Technologies). Following staining, cells were stored with 70% glycerol and imaged using a light microscope (Meiji, Inc.). Images were post-processed in Adobe Photoshop to increase image contrast and visibility of β-Galactosidase+ cells. Total cells and β-Galactosidase+ cells were manually counted in FIJI, with at least 1,000 cells counted per treatment group.

Entries after “also recorded” stand apart in the source; their conditions may differ. Where two headings read alike, the source gives them in different places. Bridge positions count the residues as written; N and C are the ends. Ends that are not written are not given here.

In the case of `CC#CC(=O)Nc1cc2c(Nc3ccc(F)c(Cl)c3)ncnc2cn1` [E/E inhibitor], in the test with MSCs from aged donors (brachial loading 7.5% strain, 4 hours per day for 7 days + 1 μM E/E inhibitor, MSCs from three donors (68-92 years), relative to static control), the “DNA synthesis (BrdU proliferation assay)” value is listed as “increased DNA synthesis in two of three donor lines”. Also, in test [1] (brachial loading and E/E inhibitor treatments, aged donor one MSCs), the “expression of antioxidant enzyme SOD1 (Western blotting)” value is “significantly upregulated expression”. Besides, in test [1] (brachial+E/E inhibitor, 4 hours per day for 7 days, aged donor one MSCs, vs. static control), the “oxidative stress signaling protein expression, FOX0 transcription factors (Western blotting)” value was “upregulation of FOX01, p-FOX01, FOX03a, p-FOX03a, and p-FOX04”. For the same compound, the “Sirtuin protein expression (Western blotting)” value in test [1] (brachial+E/E treatment, donor one MSCs, in comparison to static control) was “upregulation of p-SIRT1, SIRT6, and SIRT7”. In test [2], the “senescence-related gene expression patterns (RNA-seq)” value is given as “reversed the effects implicated by senescence”. In addition, the “MSCs that expressed the markers for both endothelial cells and pericytes” value in the test on MSCs from young donors [3] is listed as “dramatic increase”. Further, the “angiogenic activity / angiogenic properties of MSCs” value in the test with MSCs from young donors [4] (listed as EGFR/ErbB-2/4 (E/E) inhibitor) is on record as “enhanced angiogenic activity”; with MSCs from young donors [4] (listed as EGFR/ErbB-2/4 (E/E)) it was “synergistically enhances the angiogenic properties”.

With `CC(Nc1nc(N2CCCC2)nc2ccccc12)c1ccccc1` (stereo not drawn) [Importazole], in the test with MSCs from an aged donor (4 hours brachial loading, 40 μM Importazole), the “p-γ-H2AX foci, co-treatment with brachial loading vs. brachial loading alone” value is listed as “significantly more p-γ-H2AX foci than treatment with brachial loading alone”.

Turning to `O=c1cc(-c2cccc3c2Sc2ccccc2S3)oc(N2CCOCC2)c1` [KU55933], the “DNA synthesis (BrdU assay)” value in the test with MSCs from aged donors is given as “significantly higher DNA synthesis”. The “SIRT6 expression (Western blotting)” value in test [1] (vs. static control) was “no significant change”. Further, the “DNA damage repair protein KU80 expression (Western blotting)” value in test [1] was “remained statistically unchanged”.

Take `CC(=O)N[C@@H](CS)C(=O)O` [NAC, N-acetyl-L cysteine]: the “DNA synthesis (BrdU assay)” value in the test with MSCs from aged donors is recorded as “not under brachial+NAC treatment; also recorded: a reduction of proliferative enhancement was observed”. For the same compound, in test [1] (vs. static control), the “SIRT6 expression (Western blotting)” value is on record as “significant upregulation”. In addition, the “DNA damage repair protein KU80 expression (Western blotting)” value in test [1] was “remained statistically unchanged”. Besides, the “percentage of β-galactosidase+ cells” value with aged MSCs is listed as “significant reduction”.

As for Dooku1, the “p-γ-H2AX foci, treatment of static control cells vs. static treatment alone” value in the test with MSCs from an aged donor is reported as “significantly more p-γ-H2AX foci than static treatment alone”.

“GsMTx4: directly inhibits Piezo1 channel activity (Tocris 4912) (GCLEFWWKCNPNDDKCCRPKLKCSKLFKLCNFSF; disulfide 16-30, 2-17, 9-23; not fully specified (C-terminus); ends not checked; UniProt Q7YT39 47-80, looked up)”: in the test on MSCs from an aged donor, the “p-γ-H2AX foci, treatment of static control cells vs. static treatment alone” value is on record as “significantly more p-γ-H2AX foci than static treatment alone”.
